Measurements published in US20240384311A1, “POLYHYDROXYALKANOATES AND METHODS OF MAKING THEREOF” (The Board of Trustees of the Leland Stanford Junior …, priority 2021, published 2024).
Like-named read-outs stand apart in the source and are kept apart here.

Columns and labels:
Assay type in all cases: cell-based
[1] = test system: Cupriavidus necator H16 ΔphaC1 hadA-phaC1437; conditions: shake-flask, 30° C., determined from 20 mM down in steps of 5 mM until acceptable growth
Experimental: (§1) Liquid cultures under heterotrophic conditions were conducted in 500 mL vented, baffled shake-flasks (WHEATON® Erlenmeyer Flasks with DuoCap®. DWK Life Sciences), incubated with shaking at 180 rpm on an innova 2300 platform shaker (New Brunswick Scientific) at 30° C. For feeding experiments, precultures of the engineered C. necator strains were inoculated in liquid RB+kan (50 mL) from solid RB+kan and grown over-night. In the morning the medium was exchanged for MSM+kan, diluting the culture 1:2 (in 100 mL). In the afternoon the seed-culture was washed with MSM and again diluted 1:2 (in 200 mL) with MSM+kan+polymer-precursor and induced with arabinose (1 g/L, unless indicated otherwise) in the evening. OD was monitored accompanied by collection of supernatant samples.
(§2) In a PHA-negative knock-out mutant (ΔphaC1) of the type-strain ‘H16’, pct540 & phaC1437 and hadA & phaC1437 were expressed, respectively.
(§3) Toxicity limits of the respective hydroxy carbonic acids were determined outgoing from 20 mM down in steps of 5 mM until acceptable growth was obtained in shake-flask experiments at 30° C.
(§4) Cultivations conducted on minimal salt medium with 30 g/L fructose as carbon-source and 2 g/L ammonium chloride as nitrogen-source (limiting). Cultures were inoculated at an OD600 of ≈0.5-1.

[2] = test system: Cupriavidus necator H16 wild-type; test: Shake-flask cultivation with externally supplied hydroxy carbonic acids (toxicity limit, growth), wild-type strain; conditions: for final biomass: H16 wild-type cultivated with the hydroxyalkanoate at its listed concentration, 2 g/L ammonium chloride
Experimental: as §1, §2, §3, §4

[3] = test system: Cupriavidus necator H16 ΔphaC1 pct540-phaC1437; conditions: for final biomass: H16 ΔphaC1 pct540-phaC1437 cultivated with the hydroxyalkanoate at its listed concentration, 30 g/L fructose, 2 g/L ammonium chloride; for Concentration (maximum non-toxic concentration of hydroxyalkanoate): H16 ΔphaC1 pct540-phaC1437, shake-flask, 30° C., determined from 20 mM down in steps of 5 mM until acceptable growth
Experimental: as §1, §2, §3, §4

[4] = H16 wild-type, shake-flask, 30° C., determined from 20 mM down in steps of 5 mM until acceptable growth, MSM, 30 g/L fructose

Row | SMILES | Concentration (maximum non-toxic concentration of hydroxyalkanoate) [1] | final biomass ([2]; 30 g/L fructose) [g/L] | final biomass [3] [g/L] | Concentration (maximum non-toxic concentration of hydroxyalkanoate) [2, 4] | Concentration (maximum non-toxic concentration of hydroxyalkanoate) [3] | Concentration (maximum non-toxic concentration of hydroxyalkanoate) [2] [µM]
1 | O=C(O)/C=C/c1ccc(O)c(O)c1 [caffeic acid] | 5000 µM |  |  |  |  | 
2 | O=C(O)C(O)Cc1ccccc1 (centres unmarked) [phenyllactic acid] | 10000 µM |  |  |  |  | 
3 | O=C(O)CO [glycolic acid] |  | 6.8 | 1.4 |  |  | 
4 | O=C(O)C(O)c1ccccc1 (centres unmarked) [mandelic acid] | 5000 µM |  |  |  |  | 
5 | O=C(O)CCc1ccc(O)cc1 [phloretic acid] | 5000 µM |  |  |  |  | 
6 | O=C(O)CCO [3-hydroxypropanoic acid] | 20000 µM | 5.7 | 1.6 | 20000 µM | 20000 µM | 
7 | O=C(O)CCCO [4-hydroxybutanoic acid] | 20000 µM | 4.1 | 1.9 | 20000 µM | 20000 µM | 
8 | CC(O)C(=O)O (centres unmarked) [lactic acid] |  | 18.2 | 1.9 |  |  | 20000
9 | O=C(O)CCCCCO [6-hydroxyhexanoic acid] | (<10 mM) | 3.5 | 1.5 | (<10 mM) | (<10 mM) | 
10 | O=C(O)/C=C/c1ccc(O)cc1 [para-coumaric acid] | 5000 µM |  |  |  |  | 
11 | O=C(O)C(O)CCc1ccccc1 (centres unmarked) [2-hydroxy-4-phenylbutanoic acid] | 15000 µM |  |  |  |  | 
